# Source: publication PMC10683025, “Discovery of a Hydroxylamine-Based Brain-Penetrant EGFR Inhibitor for Metastatic Non-Small-Cell Lung Cancer” (Journal of Medicinal Chemistry, 2023)
# “Also recorded” adds a separate entry of the source. Read-outs that look alike come from different tables or passages of the source.
# Columns and labels:
# [1] = molecular target: T1, ABL1(F317L)-nonphosphorylated (Homo sapiens, UniProt P00519, F317L); test: KINOMEScan; assay type: binding; conditions: read-out: Percent Control
# T1 construct: purchased Eurofins DiscoverX
# T1 sequence (P00519 whole entry F317L): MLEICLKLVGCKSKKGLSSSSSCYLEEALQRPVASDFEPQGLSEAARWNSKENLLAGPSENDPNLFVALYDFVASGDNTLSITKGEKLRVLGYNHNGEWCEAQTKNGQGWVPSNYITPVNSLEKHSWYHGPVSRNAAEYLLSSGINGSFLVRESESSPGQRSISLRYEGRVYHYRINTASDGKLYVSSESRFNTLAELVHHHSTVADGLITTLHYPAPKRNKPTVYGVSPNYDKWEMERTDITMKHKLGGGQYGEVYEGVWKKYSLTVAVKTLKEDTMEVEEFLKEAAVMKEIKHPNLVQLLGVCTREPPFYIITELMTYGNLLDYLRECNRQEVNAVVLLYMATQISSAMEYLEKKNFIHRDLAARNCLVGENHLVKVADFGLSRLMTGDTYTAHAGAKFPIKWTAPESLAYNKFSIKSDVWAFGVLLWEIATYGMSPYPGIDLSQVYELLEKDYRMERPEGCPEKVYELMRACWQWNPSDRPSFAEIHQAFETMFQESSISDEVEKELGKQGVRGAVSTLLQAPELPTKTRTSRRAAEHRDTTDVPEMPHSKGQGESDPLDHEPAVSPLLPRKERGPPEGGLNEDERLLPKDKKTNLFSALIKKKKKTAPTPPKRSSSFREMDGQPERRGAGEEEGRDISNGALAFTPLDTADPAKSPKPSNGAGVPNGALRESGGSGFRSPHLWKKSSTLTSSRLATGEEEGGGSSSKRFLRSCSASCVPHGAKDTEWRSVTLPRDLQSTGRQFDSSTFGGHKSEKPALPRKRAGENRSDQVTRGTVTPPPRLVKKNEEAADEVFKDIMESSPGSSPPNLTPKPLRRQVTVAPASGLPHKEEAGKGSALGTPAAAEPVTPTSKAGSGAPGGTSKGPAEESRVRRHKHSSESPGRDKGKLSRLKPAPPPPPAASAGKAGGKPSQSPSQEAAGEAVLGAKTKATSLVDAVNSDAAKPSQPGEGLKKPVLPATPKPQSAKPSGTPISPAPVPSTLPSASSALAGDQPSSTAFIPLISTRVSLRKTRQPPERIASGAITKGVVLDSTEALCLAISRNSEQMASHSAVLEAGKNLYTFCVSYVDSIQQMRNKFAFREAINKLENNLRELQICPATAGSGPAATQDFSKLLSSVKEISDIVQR
# Text: (§2) Percent control was mapped onto the kinome tree using TREEspot.
# [2] = molecular target: T2, ACVR1 (Homo sapiens, UniProt Q04771); test: KINOMEScan; assay type: binding; conditions: ACVR1, 1 µM; read-out: Percent Control
# T2 construct: purchased Eurofins DiscoverX
# T2 sequence (Q04771 21-509): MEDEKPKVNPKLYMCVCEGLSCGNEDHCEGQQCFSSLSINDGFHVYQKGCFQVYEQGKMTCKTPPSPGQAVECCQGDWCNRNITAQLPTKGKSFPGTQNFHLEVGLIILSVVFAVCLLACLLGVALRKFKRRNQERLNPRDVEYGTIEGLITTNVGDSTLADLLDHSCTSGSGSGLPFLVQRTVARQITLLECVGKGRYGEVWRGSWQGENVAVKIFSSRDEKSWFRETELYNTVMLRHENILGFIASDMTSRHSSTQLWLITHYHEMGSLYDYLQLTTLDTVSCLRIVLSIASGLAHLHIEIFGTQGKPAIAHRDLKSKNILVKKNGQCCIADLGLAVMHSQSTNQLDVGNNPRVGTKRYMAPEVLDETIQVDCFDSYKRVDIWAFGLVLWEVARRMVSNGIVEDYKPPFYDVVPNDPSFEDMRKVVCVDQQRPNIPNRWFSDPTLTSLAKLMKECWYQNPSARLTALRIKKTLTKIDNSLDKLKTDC
# Text: as §2
# [3] = molecular target: T3, AURKC (Homo sapiens, UniProt Q9UQB9); test: KINOMEScan; assay type: binding; conditions: read-out: Percent Control
# T3 construct: purchased Eurofins DiscoverX (KINOMEscan)
# T3 sequence (Q9UQB9 whole entry): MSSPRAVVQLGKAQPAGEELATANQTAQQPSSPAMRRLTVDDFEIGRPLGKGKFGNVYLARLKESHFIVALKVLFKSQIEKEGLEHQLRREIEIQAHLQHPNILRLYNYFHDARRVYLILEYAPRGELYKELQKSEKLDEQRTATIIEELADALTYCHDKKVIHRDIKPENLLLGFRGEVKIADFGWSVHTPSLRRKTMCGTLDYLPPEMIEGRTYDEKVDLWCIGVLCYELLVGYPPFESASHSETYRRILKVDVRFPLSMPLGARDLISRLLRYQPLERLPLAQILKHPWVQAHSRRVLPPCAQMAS
# [4] = test system: CHO-K1 cells; test: In vitro micronucleus test; assay type: cell-based, Chinese hamster; conditions: ± rat liver S9; valid to 31 μM + S9 and 8 μM − S9
# Method: Compound 9 was assessed for genotoxicity by Eurofins Panlabs using the in vitro micronucleus test in Chinese hamster ovary (CHO-K1) cells as previously described.[79] Compound 9 was incubated in a 96-well plate format at varying concentrations (8, 16, 31, 62, 125, 250, 500, and 1000 μM) for 4 h at 37 °C with metabolic activation by rat liver S9 and 24 h at 37 °C without metabolic activation by rat liver S9. High content analysis and fluorescence imaging were used to detect micronuclei and compared against positive controls (cyclophosphamide (ran at 7.2 μM) and mitomycin C (ran at 0.3 μM)). Significances of the positive counts between the treatment and control were determined by one-tailed t test with two-sample equal variance.
# [5] = test system: panel of 468 kinases; test: KINOMEScan selectivity scores
# Text: as §2
# [6] = molecular target: T4, PIKFYVE (Homo sapiens, UniProt Q9Y2I7); test: KINOMEScan; assay type: binding; conditions: read-out: Percent Control
# T4 construct: purchased Eurofins DiscoverX (KINOMEScan service)
# T4 sequence (Q9Y2I7 whole entry): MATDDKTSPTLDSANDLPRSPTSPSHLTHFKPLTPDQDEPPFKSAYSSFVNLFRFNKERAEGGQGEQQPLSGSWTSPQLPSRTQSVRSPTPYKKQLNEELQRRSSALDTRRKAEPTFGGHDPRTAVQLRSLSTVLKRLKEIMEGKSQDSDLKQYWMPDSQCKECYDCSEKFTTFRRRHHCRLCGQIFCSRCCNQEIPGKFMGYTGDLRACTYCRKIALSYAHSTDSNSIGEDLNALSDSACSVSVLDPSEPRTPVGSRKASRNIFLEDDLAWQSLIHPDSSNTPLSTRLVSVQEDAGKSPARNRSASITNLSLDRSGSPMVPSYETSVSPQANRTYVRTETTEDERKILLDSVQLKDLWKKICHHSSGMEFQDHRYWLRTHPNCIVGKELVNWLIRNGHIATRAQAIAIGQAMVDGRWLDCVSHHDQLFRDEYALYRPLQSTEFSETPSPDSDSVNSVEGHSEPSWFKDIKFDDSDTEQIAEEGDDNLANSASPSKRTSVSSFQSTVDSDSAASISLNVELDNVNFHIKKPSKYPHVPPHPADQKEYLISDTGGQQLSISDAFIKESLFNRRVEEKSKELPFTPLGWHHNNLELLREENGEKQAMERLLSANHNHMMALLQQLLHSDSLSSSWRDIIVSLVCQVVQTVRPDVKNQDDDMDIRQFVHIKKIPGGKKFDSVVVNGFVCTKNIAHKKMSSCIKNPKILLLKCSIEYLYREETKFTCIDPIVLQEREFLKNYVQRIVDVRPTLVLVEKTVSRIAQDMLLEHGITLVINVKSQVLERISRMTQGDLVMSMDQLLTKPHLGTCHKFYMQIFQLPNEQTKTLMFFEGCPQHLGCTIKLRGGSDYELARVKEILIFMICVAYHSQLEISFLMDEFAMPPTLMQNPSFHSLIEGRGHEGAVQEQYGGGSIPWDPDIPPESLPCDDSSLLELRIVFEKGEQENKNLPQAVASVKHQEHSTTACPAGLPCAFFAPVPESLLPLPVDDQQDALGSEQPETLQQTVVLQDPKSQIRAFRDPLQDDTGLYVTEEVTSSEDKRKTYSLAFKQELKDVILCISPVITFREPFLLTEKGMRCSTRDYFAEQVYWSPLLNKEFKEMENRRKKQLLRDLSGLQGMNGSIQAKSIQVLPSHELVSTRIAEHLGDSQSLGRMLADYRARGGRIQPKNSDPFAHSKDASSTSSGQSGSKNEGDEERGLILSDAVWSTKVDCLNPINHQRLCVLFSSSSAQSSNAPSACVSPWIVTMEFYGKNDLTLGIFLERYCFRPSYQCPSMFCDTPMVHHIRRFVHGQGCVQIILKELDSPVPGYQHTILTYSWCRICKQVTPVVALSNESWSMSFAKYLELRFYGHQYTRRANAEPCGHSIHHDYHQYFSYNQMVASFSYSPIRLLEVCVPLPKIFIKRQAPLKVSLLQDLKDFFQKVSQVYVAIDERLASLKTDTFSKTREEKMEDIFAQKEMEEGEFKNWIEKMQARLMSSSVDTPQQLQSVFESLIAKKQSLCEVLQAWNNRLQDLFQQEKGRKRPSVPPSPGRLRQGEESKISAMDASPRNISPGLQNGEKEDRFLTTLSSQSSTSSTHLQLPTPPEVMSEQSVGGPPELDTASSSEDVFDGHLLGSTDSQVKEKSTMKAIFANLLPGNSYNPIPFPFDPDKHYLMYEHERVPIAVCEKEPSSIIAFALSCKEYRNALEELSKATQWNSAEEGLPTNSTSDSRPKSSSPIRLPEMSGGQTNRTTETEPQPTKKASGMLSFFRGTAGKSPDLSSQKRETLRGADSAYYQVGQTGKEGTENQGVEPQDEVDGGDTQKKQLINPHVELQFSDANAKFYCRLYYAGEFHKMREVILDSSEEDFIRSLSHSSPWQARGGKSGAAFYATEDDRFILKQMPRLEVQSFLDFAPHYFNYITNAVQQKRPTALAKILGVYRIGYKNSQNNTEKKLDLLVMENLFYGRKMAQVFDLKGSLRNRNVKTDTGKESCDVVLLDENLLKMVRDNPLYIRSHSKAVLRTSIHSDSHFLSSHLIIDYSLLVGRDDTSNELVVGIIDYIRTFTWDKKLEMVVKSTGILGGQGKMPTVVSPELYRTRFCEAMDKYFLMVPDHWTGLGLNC
# [7] = molecular target: T5, YANK1 (Homo sapiens, UniProt Q8WU08); test: KINOMEScan; assay type: binding; conditions: YANK1, 1 µM; read-out: Percent Control
# T5 construct: purchased Eurofins DiscoverX (KINOMEScan service)
# T5 sequence (Q8WU08 whole entry): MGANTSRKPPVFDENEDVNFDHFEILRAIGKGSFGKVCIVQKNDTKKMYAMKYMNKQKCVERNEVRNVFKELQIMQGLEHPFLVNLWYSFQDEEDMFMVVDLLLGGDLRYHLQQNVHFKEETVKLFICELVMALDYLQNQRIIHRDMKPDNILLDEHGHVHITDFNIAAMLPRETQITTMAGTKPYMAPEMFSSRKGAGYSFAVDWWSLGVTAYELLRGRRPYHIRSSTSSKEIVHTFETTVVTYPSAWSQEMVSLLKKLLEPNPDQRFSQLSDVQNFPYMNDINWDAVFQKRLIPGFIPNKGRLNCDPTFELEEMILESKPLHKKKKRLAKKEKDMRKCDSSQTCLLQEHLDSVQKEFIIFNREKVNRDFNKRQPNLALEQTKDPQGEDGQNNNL
# Text: as §2
# [8] = test system: TA98; test: Background bacterial cytotoxicity assay; design: species or system Salmonella; key to Flag: A cytotoxicity value of less than 60% is flagged and the compound is considered as toxic (denoted as Cytox.); A hyphen (-) denotes no cytotoxicity at the respective concentration
# Method: (§1) Compounds were assessed for mutagenicity at the Eurofins Panlabs in 384-well plates using four Salmonella strains: TA98, to probe for frameshift mutation (with quercetin as control), TA100 and TA1535, to probe for base pair insertions/deletions (with streptozotocin as control), and TA1537, to probe for frameshift mutations (with aminacridine as control) as previously described.[78] Each compound was incubated at 37 °C for 96 h at four different concentrations (5, 10, 50, and 100 μM), with each concentration tested using 48 replicates, both with and without rat liver S9 metabolic activation. A concurrent bacterial cytotoxicity assay was run at 0.6, 1.2, 2.5, 5, 10, 25, 50, and 100 μM to rule out false negatives. Bacterial cytotoxicity was expressed as percent of control growth (OD650). Compounds with growth of less than 60% control were flagged and considered bacterial cytotoxic. […] Significances of the positive counts between the treatment and control were determined using a one-tailed Fisher’s exact test.
# [9] = test system: TA1537; test: Background bacterial cytotoxicity assay; design: species or system Salmonella; key to Flag: A cytotoxicity value of less than 60% is flagged and the compound is considered as toxic (denoted as Cytox.); A hyphen (-) denotes no cytotoxicity at the respective concentration
# Method: as §1
# [10] = test system: TA100; test: Background bacterial cytotoxicity assay; design: species or system Salmonella; key to Flag: A cytotoxicity value of less than 60% is flagged and the compound is considered as toxic (denoted as Cytox.); A hyphen (-) denotes no cytotoxicity at the respective concentration
# Method: as §1
# [11] = molecular target: T6, WNK3 (Homo sapiens, UniProt Q9BYP7); test: KINOMEScan; assay type: binding; conditions: WNK3, 1 µM; read-out: Percent Control
# T6 construct: purchased Eurofins DiscoverX
# Text: as §2
# [12] = molecular target: T7, AKT1 (Homo sapiens, UniProt P31749); test: KINOMEScan; assay type: binding; conditions: AKT1, 1 µM; read-out: Percent Control
# T7 construct: purchased Eurofins DiscoverX (KINOMEscan)
# T7 sequence (P31749 whole entry): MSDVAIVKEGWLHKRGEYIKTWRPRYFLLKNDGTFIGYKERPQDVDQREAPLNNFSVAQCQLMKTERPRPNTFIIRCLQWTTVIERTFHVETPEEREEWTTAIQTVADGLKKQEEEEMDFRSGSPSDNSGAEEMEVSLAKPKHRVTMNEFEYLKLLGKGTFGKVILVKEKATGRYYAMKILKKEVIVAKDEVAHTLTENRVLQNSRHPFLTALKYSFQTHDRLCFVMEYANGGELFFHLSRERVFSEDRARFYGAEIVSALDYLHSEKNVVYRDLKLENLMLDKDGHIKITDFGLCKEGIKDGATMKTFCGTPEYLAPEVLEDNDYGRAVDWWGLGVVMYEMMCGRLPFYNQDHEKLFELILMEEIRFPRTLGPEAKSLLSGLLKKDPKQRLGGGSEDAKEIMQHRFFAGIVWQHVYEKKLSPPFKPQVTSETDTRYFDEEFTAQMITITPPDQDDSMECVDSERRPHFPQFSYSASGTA
# Text: as §2
# [13] = test system: TA1535; design: species or system Salmonella
structure (smiles),measurement,setting,value
"COc1cc2ncnc(Nc3cccc(Cl)c3F)c2cc1OCCON1CCN(C)CC1 [Compound 9, N-(3-Chloro-2-fluorophenyl)-7-methoxy-6-(2-((4-methylpiperazin-1-yl)oxy)ethoxy)quinazolin-4-amine]",remaining binding at 1 µM,[1],16%
same,remaining binding at 1 µM,[2],100%
same,remaining binding at 1 µM,[3],82%
same,In vitro micronucleus,[4],neither mutagenic nor genotoxic potential; also recorded: Negative
same,Number of Hits S(1),"[5]; percent control < 1, of 403",2
same,Number of Hits S(10),"[5]; percent control < 10, of 403",6
same,Number of Hits S(35),"[5]; percent control < 35, of 403",12
same,remaining binding at 1 µM,[6],1.6%
same,remaining binding at 1 µM,[7],94%
same,Flag,"[8]; TA98-S9, 1.0E-04 M",-
same,Mean % Control (n = 3),"[8]; TA98-S9, 1.0E-04 M",84.2%
same,Flag,"[8]; TA98-S9, 1.0E-05 M",-
same,Mean % Control (n = 3),"[8]; TA98-S9, 1.0E-05 M",91.1%
same,Flag,"[8]; TA98-S9, 1.2E-06 M",-
same,Mean % Control (n = 3),"[8]; TA98-S9, 1.2E-06 M",92.3%
same,Flag,"[8]; TA98-S9, 2.5E-05 M",-
same,Mean % Control (n = 3),"[8]; TA98-S9, 2.5E-05 M",94.8%
same,Flag,"[8]; TA98-S9, 2.5E-06 M",-
same,Mean % Control (n = 3),"[8]; TA98-S9, 2.5E-06 M",91.7%
same,Flag,"[8]; TA98-S9, 5.0E-05 M",-
same,Mean % Control (n = 3),"[8]; TA98-S9, 5.0E-05 M",87.8%
same,Flag,"[8]; TA98-S9, 5.0E-06 M",-
same,Mean % Control (n = 3),"[8]; TA98-S9, 5.0E-06 M",95.7%
same,Flag,"[8]; TA98-S9, 6.0E-07 M",-
same,Mean % Control (n = 3),"[8]; TA98-S9, 6.0E-07 M",89.0%
same,Flag,"[9]; TA1537-S9, 1.0E-04 M",-
same,Mean % Control (n = 3),"[9]; TA1537-S9, 1.0E-04 M",60.3%
same,Flag,"[9]; TA1537-S9, 1.0E-05 M",-
same,Mean % Control (n = 3),"[9]; TA1537-S9, 1.0E-05 M",88.7%
same,Flag,"[9]; TA1537-S9, 1.2E-06 M",-
same,Mean % Control (n = 3),"[9]; TA1537-S9, 1.2E-06 M",98.4%
same,Flag,"[9]; TA1537-S9, 2.5E-05 M",-
same,Mean % Control (n = 3),"[9]; TA1537-S9, 2.5E-05 M",83.8%
same,Flag,"[9]; TA1537-S9, 2.5E-06 M",-
same,Mean % Control (n = 3),"[9]; TA1537-S9, 2.5E-06 M",90.5%
same,Flag,"[9]; TA1537-S9, 5.0E-05 M",-
same,Mean % Control (n = 3),"[9]; TA1537-S9, 5.0E-05 M",71.1%
same,Flag,"[9]; TA1537-S9, 5.0E-06 M",-
same,Mean % Control (n = 3),"[9]; TA1537-S9, 5.0E-06 M",98.8%
same,Flag,"[9]; TA1537-S9, 6.0E-07 M",-
same,Mean % Control (n = 3),"[9]; TA1537-S9, 6.0E-07 M",101.7%
same,Flag,"[10]; TA100-S9, 1.0E-04 M",Cytox. (A cytotoxicity value of less than 60% is flagged and the compound is considered as toxic (denoted as Cytox.))
same,Mean % Control (n = 3),"[10]; TA100-S9, 1.0E-04 M",34.0%
same,Flag,"[10]; TA100-S9, 1.0E-05 M",-
same,Mean % Control (n = 3),"[10]; TA100-S9, 1.0E-05 M",90.3%
same,Flag,"[10]; TA100-S9, 1.2E-06 M",-
same,Mean % Control (n = 3),"[10]; TA100-S9, 1.2E-06 M",91.2%
same,Flag,"[10]; TA100-S9, 2.5E-05 M",-
same,Mean % Control (n = 3),"[10]; TA100-S9, 2.5E-05 M",80.9%
same,Flag,"[10]; TA100-S9, 2.5E-06 M",-
same,Mean % Control (n = 3),"[10]; TA100-S9, 2.5E-06 M",89.5%
same,Flag,"[10]; TA100-S9, 5.0E-05 M",-
same,Mean % Control (n = 3),"[10]; TA100-S9, 5.0E-05 M",67.3%
same,Flag,"[10]; TA100-S9, 5.0E-06 M",-
same,Mean % Control (n = 3),"[10]; TA100-S9, 5.0E-06 M",93.2%
same,Flag,"[10]; TA100-S9, 6.0E-07 M",-
same,Mean % Control (n = 3),"[10]; TA100-S9, 6.0E-07 M",91.6%
same,remaining binding at 1 µM,[11],94%
same,remaining binding at 1 µM,[12],100%
same,Count (# of wells),"[13]; TA1535+S9, 1.0E-04 M",0
same,Positive Significance (- to +++),"[13]; TA1535+S9, 1.0E-04 M",-
same,Count (# of wells),"[13]; TA1535+S9, 1.0E-05 M",3
same,Positive Significance (- to +++),"[13]; TA1535+S9, 1.0E-05 M",-
same,Count (# of wells),"[13]; TA1535+S9, 5.0E-05 M",0
same,Positive Significance (- to +++),"[13]; TA1535+S9, 5.0E-05 M",-
same,Count (# of wells),"[13]; TA1535+S9, 5.0E-06 M",1
same,Positive Significance (- to +++),"[13]; TA1535+S9, 5.0E-06 M",-
same,Count (# of wells),"[13]; TA1535-S9, 1.0E-04 M",0
same,Positive Significance (- to +++),"[13]; TA1535-S9, 1.0E-04 M",-
same,Count (# of wells),"[13]; TA1535-S9, 1.0E-05 M",0
same,Positive Significance (- to +++),"[13]; TA1535-S9, 1.0E-05 M",-
same,Count (# of wells),"[13]; TA1535-S9, 5.0E-05 M",0
same,Positive Significance (- to +++),"[13]; TA1535-S9, 5.0E-05 M",-
same,Count (# of wells),"[13]; TA1535-S9, 5.0E-06 M",0
same,Positive Significance (- to +++),"[13]; TA1535-S9, 5.0E-06 M",-
